Non-standard residues stand in square brackets, D forms with d. Residues, ends and D or L forms follow the SMILES beside them. *: point of attachment. Biotin = O=C1N[C@H]2[C@H](CS[C@H]2CCCCC(=O)*)N1; pS = N[C@@H](COP(=O)(O)O)C(=O)O
Experiments:
ALPL [1] = biological target: T1, ALPL (Homo sapiens, UniProt P05186); assay: SPR (Biacore 8K) binding of peptide ligands to ALPL; details: peptides 0 to 50 μM
T1 sequence (P05186 18-501): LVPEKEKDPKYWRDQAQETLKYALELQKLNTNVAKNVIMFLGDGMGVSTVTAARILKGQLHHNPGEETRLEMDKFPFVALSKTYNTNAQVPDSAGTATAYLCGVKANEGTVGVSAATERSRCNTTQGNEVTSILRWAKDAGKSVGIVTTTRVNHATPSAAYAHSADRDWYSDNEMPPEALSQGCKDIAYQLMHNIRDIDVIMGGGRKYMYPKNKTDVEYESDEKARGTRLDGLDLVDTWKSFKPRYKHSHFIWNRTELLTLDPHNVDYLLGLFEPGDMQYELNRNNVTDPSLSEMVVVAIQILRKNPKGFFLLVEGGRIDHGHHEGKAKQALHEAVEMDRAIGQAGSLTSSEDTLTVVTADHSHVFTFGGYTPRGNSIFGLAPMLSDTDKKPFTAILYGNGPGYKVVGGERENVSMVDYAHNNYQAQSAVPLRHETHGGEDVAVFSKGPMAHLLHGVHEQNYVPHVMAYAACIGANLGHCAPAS
Description: Binding and interaction between the peptides and the ALPL receptor were measured by Surface Plasmon Resonance (SPR) on a Biacore 8K instrument. The biotinylated peptides in Table 37 were captured on the streptavidin biosensor chip and 1000 nM of ALPL and buffer were passed over the peptides to monitor binding. […] His-tagged ALPL was then captured on the chip pre-immobilized with anti-His antibody, and 50 μM of the peptides in Table 37 or 250 nM of the AAV9 control capsid, the TTM-001 capsid variant (SEQ ID NO: 981), or the TTM-002 capsid variant (SEQ ID NO: 982) were flowed over the ALPL to check for binding. […] The longer peptides derived from TTM-002,
were also flowed over the his-tagged ALPL captured on the CM5 sensor chip pre-immobilized with anti-His antibody.
Binding and interaction between the phosho-peptides and the ALPL receptor were also measured by SPR. The biotinylated and phosphorylated peptides in Table 38 were captured on the streptavidin biosensor chip along with their non-phosphorylated counterparts, […] (SEQ ID NO: 4500) and […] (SEQ ID NO: 4503). ALPL and buffer were passed over the peptides to monitor binding. The concentration of ALPL used ranged from 0 to 500 nM (0 nM, 125 nM, 250 nM, and 500 nM).
In a second experiment, his-tagged ALPL was first captured on a CM5 sensor chip pre-immobilized with anti-His antibody. The phosphorylated peptides in Table 38 and their non-phosphorylated counterparts, […] (SEQ ID NO: 4500) and […] (SEQ ID NO: 4503) and buffer were flowed over the ALPL protein to monitor binding.

ALPL [2] = biological target: T1, ALPL; assay: biochemical; format: binding; details: for binding to ALPL by ELISA: ALPL coated on wells
From the text: Binding of the phospho-peptides of SEQ ID NO: 4512 and 4513 along with their non-phosphorylated counterparts, […] (SEQ ID NO: 4500) and […]

His-tagged ALPL = biological target: T2, His-tagged ALPL (Homo sapiens, UniProt P05186); assay: Bio Layer Interferometry (BLI)/Octet binding of peptides to ALPL; details: for binding to ALPL by BLI/Octet: ALPL 1.56 to 100 nM
T2 sequence (P05186 18-501): T1 sequence (P05186 18-501)
From the text: Binding of the phospho-peptides of SEQ ID NO: 4512 and SEQ ID NO: 4513 to ALPL was also investigated using Bio Layer Interferometry (BLI)/Octet.

[3] = biological target: human ALPL (soluble protein used in the ELISA and SPR of Example 14) (human) (UniProt P05186); assay: SPR (Biacore), antibody captured on the chip, 1.6 to 1000 nM of human ALPL flowed over

Row | Compound | binding to ALPL by SPR, his-tagged ALPL captured on chip (ALPL [1]) | EC50 (ALPL [2]) | binding to ALPL by ELISA (ALPL [2]) | Kd (His-tagged ALPL) | koff (His-tagged ALPL) | kon (His-tagged ALPL) | binding to ALPL by BLI/Octet (His-tagged ALPL) | binding to ALPL at a pH of 5.5 (His-tagged ALPL; pH 5.5) | Kd [3] | koff [3] | kon [3]
1 | NCCCC[C@H](NC(=O)[C@H](Cc1c[nH]cn1)NC(=O)[C@@H]1CCCN1C(=O)[C@H](COP(=O)(O)O)NC(=O)[C@H](CC(=O)O)NC(=O)[C@H](Cc1c[nH]cn1)NC(=O)CNC(=O)[C@H](CC(N)=O)NC(=O)[C@H](CO)NC(=O)CNC(=O)[C@H](CO)NC(=O)CNC(=O)CCCC[C@@H]1SC[C@@H]2NC(=O)N[C@@H]21)C(=O)N[C@@H](CO)C(=O)NCC(N)=O [SEQ ID NO: 4512] (Biotin-GSGSNGHD[pS]PHKSG-NH2) | low signal with dose dependency | 763 nM | dose-dependent binding to ALPL | 112 nM | 0.0026 s⁻¹ | 23000 M⁻¹ s⁻¹ | demonstrated binding to ALPL | – | – | – | –
2 | CC[C@H](C)[C@H](NC(=O)[C@@H](NC(=O)[C@H](CCCCN)NC(=O)[C@H](CO)NC(=O)CNC(=O)[C@H](CO)NC(=O)CNC(=O)CCCC[C@@H]1SC[C@@H]2NC(=O)N[C@@H]21)[C@@H](C)O)C(=O)N[C@@H](CC(N)=O)C(=O)NCC(=O)N[C@@H](Cc1c[nH]cn1)C(=O)N[C@@H](CC(=O)O)C(=O)N[C@@H](COP(=O)(O)O)C(=O)N1CCC[C@H]1C(=O)N[C@@H](Cc1c[nH]cn1)C(=O)N[C@@H](CCCCN)C(=O)N[C@@H](CO)C(=O)NCC(=O)N[C@@H](CCC(N)=O)C(=O)N[C@@H](CC(N)=O)C(=O)N[C@@H](CCC(N)=O)C(N)=O [SEQ ID NO: 4513] (Biotin-GSGSKTINGHD[pS]PHKSGQNQ-NH2) | low signal with dose dependency | 4290 nM | dose-dependent binding to ALPL | 20.7 nM | 0.00067 s⁻¹ | 32000 M⁻¹ s⁻¹ | demonstrated binding to ALPL | no binding was observed | – | – | –
3 | Human Alkaline Phosphatase/ALPL Antibody, clone B4-78 (MAB1448-SP) | – | – | – | – | – | – | – | – | 215 nM | 0.0015 s⁻¹ | 6800 M⁻¹ s⁻¹

Reference: US20260250318A1, “COMPOSITIONS AND METHODS FOR CROSSING THE BLOOD BRAIN BARRIER” (VOYAGER THERAPEUTICS, INC., priority 2022, published 2026)
